Source: PMC5923171, “Novel Zinc-Attenuating Compounds as Potent Broad-Spectrum Antifungal Agents with In Vitro and In Vivo Efficacy” (Antimicrobial Agents and Chemotherapy, 2018)
≈ marks a conversion by molar mass, not a printed value. Where two headings read alike, the source gives them in different places.

Tests used:
C. albicans = experiment: Fungal growth recovery after prolonged exposure (MFC); type: cell-based, Candida albicans; conditions: for growth recovery after exposure: 5 days of exposure, then compound-free medium (EDTA: during compound incubation, 0.22 to 22 μg/ml)
C. albicans SC5314 = experiment: Antifungal susceptibility testing (MIC); type: cell-based, Candida albicans; conditions: at least 50% growth inhibition, RPMI, 24 h, 34°C
Protocol: (§1) Antifungal susceptibility testing was carried out as described previously ([38], [39]), with a few modifications. Briefly, for each yeast or mold growth inhibition assay, frozen stocks of yeast cells or spores were diluted to a final concentration of 0.5 × 10^5 to 2.5 × 10^5 CFU/ml in sterile water. ZAC989, ZAC307, and ZAC623 were dissolved in DMSO to 10 mM stocks from which half-log serial dilutions were prepared. Growth assays were subsequently performed by pipetting 3 μl of compound dissolved in DMSO (giving a final concentration of 1.5% DMSO), 100 μl of cell-spore suspension, and 97 μl of 2× RPMI medium (20.8 g/liter of RPMI 1640 medium, 69.06 g/liter of morpholinepropanesulfonic acid [MOPS], 36 g/liter of glucose) into a microtiter plate that was incubated for 24 h (yeasts) or 48 to 72 h (molds) at 34°C. Fungal growth was determined spectrophotometrically by optical density reading of each well at a wavelength of 492 nm on a Victor X5 (Perkin-Elmer) plate reader. […] Standard errors between repeated experiments were generally below 5%. The growth effect of exogenous addition of various divalent metals was evaluated by performing the antifungal susceptibility assay in the presence of 5 μM ZAC989 or ZAC307 and with increasing concentrations (0.003 to 50 μM) of ZnSO4, CuSO4, (NH4)2Fe(SO4)2, MgCl2, and CaCl2.

[1] = Fluorescence-based competition assay using FluoZin-3 (compound-Zn2+ dissociation constant); type: binding; conditions: FluoZin-3 competition, PBS pH 7.4, room temperature; read-out: Compound-Zn^2+ KD
Protocol: The dissociation constant (Kd) of zinc to zinc-attenuating compounds was determined at room temperature using FluoZin-3 (F24194; […] Testing buffer consisted of PBS (pH 7.4) with 200 nM ZnCl2 and 500 nM FluoZin-3. In a microtiter plate, 98 μl of testing buffer was mixed with 2 μl of compound at a range of concentrations to determine the half-maximal inhibitory concentration (IC50). Testing plates were incubated for 2 min before being read at an excitation wavelength of 485 nm and an emission wavelength of 516 nm with a Fluoroskan Ascent microplate fluorometer (Thermo Fisher Scientific).

C. glabrata ATCC 90030 = experiment: Antifungal susceptibility testing (MIC); type: cell-based, Candida glabrata; conditions: Nakaseomyces glabratus, ATCC90030; at least 50% growth inhibition, RPMI, 24 h, 34°C
Protocol: as §1

C. glabrata Cg003 = experiment: Antifungal susceptibility testing (MIC); type: cell-based, Candida glabrata; conditions: Nakaseomyces glabratus, CG003, 24 h
Protocol: as §1

[2] = system: wild-type A. fumigatus strain (AF14); experiment: Growth capacity in sRPMI zinc-limiting medium, 24-well plates; type: cell-based, Aspergillus fumigatus; conditions: 75 μM compound, 44 h, 37°C
Protocol: The ZACs inhibited these molds and mucorales isolates in a range from 0.4 μg/ml to 5.4 μg/ml (Table 3). To assess the capacity of the ZACs to inhibit A. fumigatus growth in the presence of zinc, 1-ml aliquots of sRPMI zinc-limiting medium (RPMI 1640 medium [R8755; Sigma] supplemented with 10 μM FeSO4·7H2O, 1 μM CuSO4·5H2O, and 1 μM MnCl2·H2O) or this medium supplemented with 2, 5, or 50 μM zinc were inoculated with 10^5 conidia of a wild-type A. fumigatus strain (AF14), dispensed in 24-well culture plates, and incubated in the presence of either ZAC307 or ZAC989 at a final concentration 21 μg/ml or 27 μg/ml (equivalent to 75 μM), respectively (Fig. 5A).
Growth capacity experiments with A. fumigatus strains AF14, AF54, AF48, AF732, and AF731 were performed in 24-well flat-bottomed tissue culture plates (35-3047; Falcon). A stock solution of 10 mM TPEN (P4413; Sigma) was prepared in pure ethanol. For these experiments, 5 mM stock solutions of ZAC307 and ZAC989 were prepared by dissolving each compound in 80% (vol/vol) ethanol. A 0.5 M stock solution of Na2EDTA·2H2O (1.08421.1000; Merck) was prepared in sterile water. […] To quantitate mycelial growth, each plate was scanned in an Agfa SnapScan 1236s scanner, and the intensity of the wells was quantified using the open-source image processing program Image J2. The data were represented and analyzed with Prism software 7.0.

[3] = system: C. parapsilosis ATCC 22019; experiment: Antifungal susceptibility testing (MIC); type: cell-based, Candida parapsilosis; conditions: Lodderomyces parapsilosis, ATCC22019; at least 50% growth inhibition, RPMI, 24 h, 34°C
Protocol: as §1

Candida albicans = experiment: Abrogation of the antifungal effect by exogenous divalent metals; type: cell-based; conditions: for fungal growth rate compared to control cells: in the presence of 100 μM Fe^2+
Protocol: as §1, with “[…],” for “susceptibility assay in the presence of 5 μM ZAC989 or ZAC307 and with increasing concentrations (0.003 to 50 μM) of ZnSO4, CuSO4, (NH4)2Fe(SO4)2,”

[4] = Candida albicans, SC5314, 24 h, read-out: MIC

In the case of `O=C(O)CN(CCN(CC(=O)O)CC(=O)O)CC(=O)O` [EDTA], the “growth recovery after exposure” value (C. albicans) is reported as “resumed visible growth after 48 h of compound incubation”, the MIC (C. albicans SC5314; [4]) is reported as roughly 0.05 µg/mL (≈ 0.171 µM) and the Kd [1] is reported as less than 10 nM.

In the case of `CN(C)c1cc(-n2nc(-c3ccccc3)cc2O)ncn1` [ZAC307, 2-[6-(dimethylamino)pyrimidin-4-yl]-5-phenyl-pyrazol-3-ol], the MIC (C. glabrata ATCC 90030) is reported as 0.2 µg/mL (≈ 0.711 µM), the MIC (C. glabrata Cg003) is reported as 0.2 µg/mL (≈ 0.711 µM) and the “growth recovery after exposure” value (C. albicans) is reported as “resume normal growth”. For the same compound, the “reduction of growth capacity, 2 μM zinc plus compound compared to 50 μM zinc” value [2] was 2.9 fold, the MIC [3] was 0.4 µg/mL (≈ 1.42 µM) and the MIC (C. albicans SC5314; [4]) was 0.4 µg/mL (≈ 1.42 µM). For the same compound, the Kd [1] was 71 nM, the “effect of exogenous addition of zinc or copper on the antifungal effects” value (Candida albicans) was “reversed” and the “fungal growth rate compared to control cells” value (Candida albicans) was “approximately 50%”.

With `Cc1cc(O)n(-c2cc(N3CC[C@H](Oc4cnccc4C#N)C3)ncn2)n1` [ZAC989, 3-[(3S)-1-[6-(5-hydroxy-3-methyl-pyrazol-1-yl)pyrimidin-4-yl]pyrrolidin-3-yl]oxy-pyridine-4-carbonitrile] the MIC (C. glabrata ATCC 90030) was 0.9 µg/mL (≈ 2.48 µM), the MIC (C. glabrata Cg003) was 0.6 µg/mL (≈ 1.65 µM) and the “growth recovery after exposure” value (C. albicans) was “resume normal growth”. For the same compound, the “reduction of growth capacity, 2 μM zinc plus compound compared to 50 μM zinc” value [2] was 3.9 fold, the MIC [3] was 0.8 µg/mL (≈ 2.2 µM) and the MIC (C. albicans SC5314; [4]) was 0.4 µg/mL (≈ 1.1 µM). The MIC (C. albicans SC5314) was 0.6 µg/mL (≈ 1.65 µM), the Kd [1] was 13 nM and the “effect of exogenous addition of zinc or copper on the antifungal effects” value (Candida albicans) was “reversed”. The “fungal growth rate compared to control cells” value (Candida albicans) was “approximately 50%”.

In the case of `c1ccc(CN(CCN(Cc2ccccn2)Cc2ccccn2)Cc2ccccn2)nc1` [TPEN, N,N,N’,N’-tetrakis(2-pyridylmethyl)-ethylenediamine], the “growth recovery after exposure” value (C. albicans) is reported as “poor recovery”, the “concentration above which exposed cells showed poor recovery” value (C. albicans; prolonged exposure) is reported as “above 2 μg/ml” and the MIC (C. albicans SC5314; [4]) is reported as roughly 0.05 µg/mL (≈ 0.118 µM). For the same compound, the Kd [1] was less than 10 nM.
